{
  "source": "patent US20230250060A1",
  "about": "(IFM Due, Inc., priority 2022, published 2023)",
  "data": [
    {"biological_target": "T1, STING (Homo sapiens, UniProt Q86WV6, G230A/H232R/R293Q/R71H)", "T1 construct": "host or cells: THP1-Dual KO-IFNAR2 cells", "T1 sequence (Q86WV6 whole entry R71H/G230A/H232R/R293Q)": "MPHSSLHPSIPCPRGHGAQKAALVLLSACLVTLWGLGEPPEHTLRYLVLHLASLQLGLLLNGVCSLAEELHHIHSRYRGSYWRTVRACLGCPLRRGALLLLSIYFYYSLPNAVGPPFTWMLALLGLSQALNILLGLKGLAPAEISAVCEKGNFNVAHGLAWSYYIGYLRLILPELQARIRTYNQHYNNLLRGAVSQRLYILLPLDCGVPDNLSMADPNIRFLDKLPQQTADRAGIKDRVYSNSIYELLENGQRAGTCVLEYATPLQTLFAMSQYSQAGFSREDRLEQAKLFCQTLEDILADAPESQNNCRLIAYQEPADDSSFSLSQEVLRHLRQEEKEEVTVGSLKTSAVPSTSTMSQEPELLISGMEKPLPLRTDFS", "assay": "STING reporter assay (luciferase) in THP1-Dual KO-IFNAR2 cells stimulated with 2′3′cGAMP", "assay_type": "cell-based", "details": "2′3′cGAMP 15 μM final, 24 h, luciferase reporter activity, read-out: Pharmaron, THP1_IFNAR2 STING 24 h Luci Normalized: GeoMean EC50", "protocol": "STING pathway activation by the compounds described herein was measured using TTIP1-Dual™ cells (KO-IFNAR2).\nTTIP1-Dual™ KO-IFNAR2 Cells (obtained from invivogen) were maintained in RPMI, 10% FCS, 5 ml P/S, 2 mM L-glut, 10 mM Hepes, and 1 mM sodium pyruvate. Compounds were spotted in empty 384 well tissue culture plates (Greiner 781182) by Echo for a final concentration of 0.0017-100 μM. Cells were plated into the TC plates at 40 μL per well, 2×10E6 cells/mL. For activation with STING ligand, 2′3′cGAMP (MW 718.38, obtained from Invivogen), was prepared in Optimem media.\nThe following solutions were prepared for each 1×384 plate: • Solution A: 2 mL Optimem with one of the following stimuli: • […] • Solution B: 2 mL Optimem with […] Lipofectamine 2000→Incubate 5 min at RT\n2 mL of solution A and 2 ml Solution B was mixed and incubated for 20 min at room temperature (RT). 20 μL of transfection solution (A+B) was added on top of the plated cells, with a final 2′3′cGAMP concentration of 15 μM. The plates were then centrifuged immediately at 340 g for 1 minute, after which they were incubated at 37° C., 5% CO2, >98% humidity for 24 h. Luciferase reporter activity was then measured. EC50 values were calculated by using standard methods known in the art.\nLuciferase reporter assay: 10 μL of supernatant from the assay was transferred to white 384-plate with flat bottom and squared wells. One pouch of QUANTI-Luc™ Plus was dissolved in 25 mL of water. 100 μL of QLC Stabilizer per 25 mL of QUANTI-Luc™ Plus solution was added. 50 μL of QUANTI-Luc™ Plus/QLC solution per well was then added. Luminescence was measured on a Platereader (e.g., Spectramax I3X (Molecular Devices GF3637001)).\nLuciferase reporter activity was then measured. EC50 values were calculated by using standard methods known in the art.", "units": {"EC50": "µM"}, "values": [
      {"smiles": "O=C(Nc1c[nH]c2ccc(OCc3ccc(C(F)(F)F)cc3)cc12)C1CC12CC2", "note": "(centres unmarked) [Compound 101, N-(5-((4-(trifluoromethyl)benzyl)oxy)-1H-indol-3-yl)spiro[2.2]pentane-1-carboxamide]", "EC50": "0.2 to 1"},
      {"smiles": "O=C(CC1CC1)Nc1c[nH]c2ccc(O[C@H]3C[C@@H](c4ccc(C(F)(F)F)cc4)C3)cc12", "note": "[Compound 102, 2-cyclopropyl-N-(5-((1s,3s)-3-(4-(trifluoromethyl)phenyl)cyclobutoxy)-1H-indol-3-yl)acetamide]", "EC50": "0.04 to 0.2"},
      {"smiles": "Cn1nccc1C(=O)Nc1c[nH]c2ccc(CCOc3ccc(C(F)(F)F)cc3)cc12", "note": "[Compound 103, 1-methyl-N-(5-(2-(4-(trifluoromethyl)phenoxy)ethyl)-1H-indol-3-yl)-1H-pyrazole-5-carboxamide]", "EC50": "0.2 to 1"},
      {"smiles": "O=C(Nc1c[nH]c2ccc(CCOc3ccc(C(F)(F)F)cc3)cc12)C1CC12CCC2", "note": "(centres unmarked) [Compound 104, N-(5-(2-(4-(trifluoromethyl)phenoxy)ethyl)-1H-indol-3-yl)spiro[2.3]hexane-1-carboxamide]", "EC50": "0.2 to 1"},
      {"smiles": "N#CC12CC(C(=O)Nc3c[nH]c4ccc(OCCc5ccc(C(F)(F)F)cc5)cc34)(C1)C2", "note": "[Compound 106, 3-cyano-N-(5-(4-(trifluoromethyl)phenethoxy)-1H-indol-3-yl)bicyclo[1.1.1]pentane-1-carboxamide]", "EC50": "0.2 to 1"},
      {"smiles": "CC12CC(C(=O)Nc3c[nH]c4ccc(OCCc5ccc(C(F)(F)F)cc5)cc34)(C1)C2", "note": "[Compound 107, 3-methyl-N-(5-(4-(trifluoromethyl)phenethoxy)-1H-indol-3-yl)bicyclo[1.1.1]pentane-1-carboxamide]", "EC50": "0.2 to 1"},
      {"smiles": "O=C(Nc1c[nH]c2ccc(OCCc3ccc(C(F)(F)F)cc3)cc12)C12CC(F)(C1)C2", "note": "[Compound 108, 3-fluoro-N-(5-(4-(trifluoromethyl)phenethoxy)-1H-indol-3-yl)bicyclo[1.1.1]pentane-1-carboxamide]", "EC50": "0.2 to 1"},
      {"smiles": "O=C(Nc1c[nH]c2ccc(OCCc3ccc(C(F)(F)F)cc3)cc12)c1ncccc1F", "note": "[Compound 109, 3-fluoro-N-(5-(4-(trifluoromethyl)phenethoxy)-1H-indol-3-yl)picolinamide]", "EC50": "0.2 to 1"},
      {"smiles": "O=C(Nc1c[nH]c2ccc(OCCc3ccc(C(F)(F)F)cc3)cc12)c1nccs1", "note": "[Compound 110, N-(5-(4-(trifluoromethyl)phenethoxy)-1H-indol-3-yl)thiazole-2-carboxamide]", "EC50": "0.2 to 1"},
      {"smiles": "Cc1oncc1C(=O)Nc1c[nH]c2ccc(OCCc3ccc(C(F)(F)F)cc3)cc12", "note": "[Compound 111]", "EC50": "5 to 100"},
      {"smiles": "Cc1noc(C)c1C(=O)Nc1c[nH]c2ccc(OCCc3ccc(C(F)(F)F)cc3)cc12", "note": "[Compound 112, 3,5-dimethyl-N-(5-(4-(trifluoromethyl)phenethoxy)-1H-indol-3-yl)isoxazole-4-carboxamide]", "EC50": "0.2 to 1"},
      {"smiles": "O=C(Nc1c[nH]c2ccc(OCCc3ccc(C(F)(F)F)cc3)cc12)c1cncs1", "note": "[Compound 113, N-(5-(4-(trifluoromethyl)phenethoxy)-1H-indol-3-yl)thiazole-5-carboxamide]", "EC50": "0.2 to 1"},
      {"smiles": "O=C(Nc1c[nH]c2ccc(OCCc3ccc(C(F)(F)F)cc3)cc12)c1cscn1", "note": "[Compound 114, N-(5-(4-(trifluoromethyl)phenethoxy)-1H-indol-3-yl)thiazole-4-carboxamide]", "EC50": "0.2 to 1"},
      {"smiles": "O=C(Nc1c[nH]c2ccc(CCOc3ccc(C(F)(F)F)cc3)cc12)C12CC(F)(C1)C2", "note": "[Compound 116, 3-fluoro-N-(5-(2-(4-(trifluoromethyl)phenoxy)ethyl)-1H-indol-3-yl)bicyclo[1.1.1]pentane-1-carboxamide]", "EC50": "0.2 to 1"},
      {"smiles": "O=C(Nc1c[nH]c2ccc(CCOc3ccc(C(F)(F)F)cc3)cc12)c1ncccc1F", "note": "[Compound 117, 3-fluoro-N-(5-(2-(4-(trifluoromethyl)phenoxy)ethyl)-1H-indol-3-yl)picolinamide]", "EC50": "0.2 to 1"},
      {"smiles": "Cc1oncc1C(=O)Nc1c[nH]c2ccc(CCOc3ccc(C(F)(F)F)cc3)cc12", "note": "[Compound 118]", "EC50": "5 to 100"},
      {"smiles": "Cc1noc(C)c1C(=O)Nc1c[nH]c2ccc(CCOc3ccc(C(F)(F)F)cc3)cc12", "note": "[Compound 119, 3,5-dimethyl-N-(5-(2-(4-(trifluoromethyl)phenoxy)ethyl)-1H-indol-3-yl)isoxazole-4-carboxamide]", "EC50": "0.2 to 1"},
      {"smiles": "O=C(Nc1c[nH]c2ccc(CCOc3ccc(C(F)(F)F)cc3)cc12)c1cncs1", "note": "[Compound 120, N-(5-(2-(4-(trifluoromethyl)phenoxy)ethyl)-1H-indol-3-yl)thiazole-5-carboxamide]", "EC50": "0.2 to 1"},
      {"smiles": "O=C(Nc1c[nH]c2ccc(OCCc3ccc(C(F)(F)F)cc3)cc12)c1ccncc1", "note": "[Compound 121, N-(5-(4-(trifluoromethyl)phenethoxy)-1H-indol-3-yl)isonicotinamide]", "EC50": "0.2 to 1"},
      {"smiles": "O=C(Nc1c[nH]c2ccc(OCCc3ccc(C(F)(F)F)cc3)cc12)c1ccn[nH]1", "note": "[Compound 122, N-(5-(4-(trifluoromethyl)phenethoxy)-1H-indol-3-yl)-1H-pyrazole-5-carboxamide]", "EC50": "0.04 to 0.2"},
      {"smiles": "O=C(Nc1c[nH]c2ccc(OCCc3ccc(C(F)(F)F)cc3)cc12)c1cccnc1", "note": "[Compound 123, N-(5-(4-(trifluoromethyl)phenethoxy)-1H-indol-3-yl)nicotinamide]", "EC50": "0.2 to 1"},
      {"smiles": "O=C(Nc1c[nH]c2ccc(OCCc3ccc(C(F)(F)F)cc3)cc12)c1ccccn1", "note": "[Compound 124, N-(5-(4-(trifluoromethyl)phenethoxy)-1H-indol-3-yl)picolinamide]", "EC50": "1 to 5"},
      {"smiles": "O=C(CC1CC1)Nc1c[nH]c2ccc(OCCc3ccc(C(F)(F)F)cc3)cc12", "note": "[Compound 125, 2-cyclopropyl-N-(5-(4-(trifluoromethyl)phenethoxy)-1H-indol-3-yl)acetamide]", "EC50": "0.04 to 0.2"},
      {"smiles": "O=C(Nc1c[nH]c2ccc(OCCc3ccc(C(F)(F)F)cc3)cc12)C1CC12CC2", "note": "(centres unmarked) [Compound 126, N-(5-(4-(trifluoromethyl)phenethoxy)-1H-indol-3-yl)spiro[2.2]pentane-1-carboxamide]", "EC50": "0.04 to 0.2"},
      {"smiles": "Cc1nnc(C(=O)Nc2c[nH]c3ccc(O[C@H]4C[C@H](c5ccc(C(F)(F)F)cc5)C4)cc23)s1", "note": "[Compound 127, 5-methyl-N-(5-((1r,3r)-3-(4-(trifluoromethyl)phenyl)cyclobutoxy)-1H-indol-3-yl)-1,3,4-thiadiazole-2-carboxamide]", "EC50": "0.2 to 1"},
      {"smiles": "Cn1cc(C(=O)Nc2c[nH]c3ccc(O[C@H]4C[C@H](c5ccc(C(F)(F)F)cc5)C4)cc23)nn1", "note": "[Compound 128, 1-methyl-N-(5-((1r,3r)-3-(4-(trifluoromethyl)phenyl)cyclobutoxy)-1H-indol-3-yl)-1H-1,2,3-triazole-4-carboxamide]", "EC50": "0.2 to 1"},
      {"smiles": "N#CC12CC(C(=O)Nc3c[nH]c4ccc(COCc5ccc(C(F)(F)F)cc5)cc34)(C1)C2", "note": "[Compound 129, 3-cyano-N-(5-(((4-(trifluoromethyl)benzyl)oxy)methyl)-1H-indol-3-yl)bicyclo[1.1.1]pentane-1-carboxamide]", "EC50": "0.2 to 1"},
      {"smiles": "O=C(Nc1c[nH]c2ccc(COCc3ccc(C(F)(F)F)cc3)cc12)C12CC(c3ccccc3)(C1)C2", "note": "[Compound 130, 3-phenyl-N-(5-(((4-(trifluoromethyl)benzyl)oxy)methyl)-1H-indol-3-yl)bicyclo[1.1.1]pentane-1-carboxamide]", "EC50": "0.04 to 0.2"},
      {"smiles": "O=C(Nc1c[nH]c2ccc(OCCc3ccc(C(F)(F)F)cc3)cc12)C12CC(C1)C2", "note": "[Compound 131, N-(5-(4-(trifluoromethyl)phenethoxy)-1H-indol-3-yl)bicyclo[1.1.1]pentane-1-carboxamide]", "EC50": "0.2 to 1"}
    ]}
  ]
}
